Measurements reported in patent US6310091A, “Fungicidal saponin, CAY-1, and isolation thereof from Capsium species fruit” (The United States of America as represented by the …, priority 2000, dated 2001).
Values joined by “and” are separate entries in the source; they are usually repeats but may differ in a detail not shown here. Identical values can stand only once. Like-named read-outs stand apart in the source and are kept apart here.

System: Aspergillus flavus
Assay: Time course study against germinating conidia of A. flavus
Format: cell-based
Settings: for activity at 2 µM / activity at 3 µM / activity at 4 µM / activity at 5 µM / activity at 7.5 µM / activity at 10 µM: read-out: Percent of Mean Control
Description: 1. Filamentous fungi. Filamentous fungi used in bioassays included Aspergillus flavus, A. fumigatus, A. niger, A. parasiticus and Fusarium oxysporum. The fungicidal properties of CAY-1 for the nongerminated and germinating conidia of these fungi were determined separately as described by De Lucca et al. [Med. Mycol., 36:291-298 (1998)] and De Lucca et al. [Antimicrob. Agents Chemother. 43:371-373 (1999)]. […] Two separate experiments were conducted in each medium (n=8 per medium).
A suspension of the aforementioned fungi were prepared separately in the appropriate medium. Conidia (10^4 conidia/ml) were used immediately for the nongerminated conidial assays while conidia (10^5 conidia/ml) were incubated for 7.5 hours at 30° C. to obtain germinating conidia. Serial dilutions of CAY-1 were prepared in the appropriate medium (totaling 225 μl) to which was added 25 μl of the conidial suspensions. The control consisted of 225 μl of medium and 25 μl of the conidial suspension. After mixing, the samples were incubated for 30 min (30° C.). Samples were then spread on potato dextrose agar plates which were incubated at 30° C. for 24 hours. Colonies were then enumerated.
4. Time course study. The effect of time and concentration on the activity of CAY-1 was determined against the germinating conidia of A. flavus in 1% (w/v) PBD. Bioassays were performed twice as described above (n=8).
Statistical analyses. ANOVA analyses on ranks for nonparametric data were performed for the bioassays described in this example.

## CC1CCC2(OC1)OC1CC3C4CCC5CC(OC6OC(CO)C(OC7OC(CO)C(O)C(OC8OC(CO)C(O)C(OC9OC(CO)C(O)C(O)C9O)C8O)C7OC7OC(CO)C(O)C(O)C7O)C(O)C6O)C(O)CC5(C)C4CCC3(C)C1C2C (stereo not drawn) [CAY-1]
5.0 min, 1% PDB, 5.0 μM
  Mean No. of Colonies: 172.4
5.0 min, 1% PDB, 7.5 μM
  Mean No. of Colonies: 163.3
5.0 min, 1% PDB, 10.0 μM
  Mean No. of Colonies: 89.8
10.0 min, 1% PDB, 2.0 μM
  Mean No. of Colonies: 135.5
10.0 min, 1% PDB, 3.0 μM
  Mean No. of Colonies: 110.8
10.0 min, 1% PDB, 4.0 μM
  Mean No. of Colonies: 119.3
10.0 min, 1% PDB, 5.0 μM
  Mean No. of Colonies: 84.3
10.0 min, 1% PDB, 7.5 μM
  Mean No. of Colonies: 32.8
10.0 min, 1% PDB, 10.0 μM
  Mean No. of Colonies: 24.9
15 min, 1% PDB, 2.0 μM
  Mean No. of Colonies: 126.0
15 min, 1% PDB, 3.0 μM
  Mean No. of Colonies: 131.9
15 min, 1% PDB, 4.0 μM
  Mean No. of Colonies: 109.1
15 min, 1% PDB, 5.0 μM
  Mean No. of Colonies: 77.6
15 min, 1% PDB, 7.5 μM
  Mean No. of Colonies: 28.1
15 min, 1% PDB, 10.0 μM
  Mean No. of Colonies: 4.4
20 min, 1% PDB, 2.0 μM
  Mean No. of Colonies: 227.4
20 min, 1% PDB, 3.0 μM
  Mean No. of Colonies: 200.0
20 min, 1% PDB, 4.0 μM
  Mean No. of Colonies: 156.4
20 min, 1% PDB, 5.0 μM
  Mean No. of Colonies: 95.5
20 min, 1% PDB, 7.5 μM
  Mean No. of Colonies: 19.8
20 min, 1% PDB, 10.0 μM
  Mean No. of Colonies: 7.6
30 min, 1% PDB, 2.0 μM
  Mean No. of Colonies: 139.8
30 min, 1% PDB, 3.0 μM
  Mean No. of Colonies: 115.4
30 min, 1% PDB, 4.0 μM
  Mean No. of Colonies: 84.1
30 min, 1% PDB, 5.0 μM
  Mean No. of Colonies: 54.2
30 min, 1% PDB, 7.5 μM
  Mean No. of Colonies: 17.1
30 min, 1% PDB, 10.0 μM
  Mean No. of Colonies: 13.1
Aspergillus flavus, 2.5 min, 1% PDB, 2.0 μM
  activity at 2 µM: 110%
Aspergillus flavus, 2.5 min, 1% PDB, 3.0 μM
  activity at 3 µM: 104%
Aspergillus flavus, 2.5 min, 1% PDB, 4.0 μM
  activity at 4 µM: 102%
Aspergillus flavus, 2.5 min, 1% PDB, 5.0 μM
  activity at 5 µM: 101%
Aspergillus flavus, 2.5 min, 1% PDB, 7.5 μM
  activity at 7.5 µM: 95.8%
Aspergillus flavus, 2.5 min, 1% PDB, 10.0 μM
  activity at 10 µM: 92.3%
Aspergillus flavus, 5 min, read-out: lowest concentration with significant lethality
  minimal effective concentration: 7.5 µM and 9.3 µg/mL
Aspergillus flavus, 5 min, 1% PDB, 2.0 μM
  activity at 2 µM: 89.2%
Aspergillus flavus, 5 min, 1% PDB, 3.0 μM
  activity at 3 µM: 93%
Aspergillus flavus, 5 min, 1% PDB, 4.0 μM
  activity at 4 µM: 83.8%
Aspergillus flavus, 5 min, 1% PDB, 5.0 μM
  activity at 5 µM: 84.3%
Aspergillus flavus, 5 min, 1% PDB, 7.5 μM
  activity at 7.5 µM: 79.9%
Aspergillus flavus, 5 min, 1% PDB, 10.0 μM
  activity at 10 µM: 43.8%
Aspergillus flavus, 10 min, 1% PDB, 2.0 μM
  activity at 2 µM: 102%
Aspergillus flavus, 10 min, 1% PDB, 3.0 μM
  activity at 3 µM: 83.3%
Aspergillus flavus, 10 min, 1% PDB, 4.0 μM
  activity at 4 µM: 89.7%
Aspergillus flavus, 10 min, 1% PDB, 5.0 μM
  activity at 5 µM: 63.4%
Aspergillus flavus, 10 min, 1% PDB, 7.5 μM
  activity at 7.5 µM: 24.7%
Aspergillus flavus, 10 min, 1% PDB, 10.0 μM
  activity at 10 µM: 18.7%
Aspergillus flavus, 10 min, 10 minutes post-incubation, 1% PDB, p=0.0001, read-out: concentration required for significant activity
  minimal effective concentration: 5 µM and 6.2 µg/mL
Aspergillus flavus, 0.25 h, read-out: LD95
  IC95: 10 µM and 12.4 µg/mL
Aspergillus flavus, 0.25 h, 15 min, 1% PDB, 2.0 μM
  activity at 2 µM: 98.4%
Aspergillus flavus, 0.25 h, 15 min, 1% PDB, 3.0 μM
  activity at 3 µM: 103%
Aspergillus flavus, 0.25 h, 15 min, 1% PDB, 4.0 μM
  activity at 4 µM: 85.2%
Aspergillus flavus, 0.25 h, 15 min, 1% PDB, 5.0 μM
  activity at 5 µM: 60.6%
Aspergillus flavus, 0.25 h, 15 min, 1% PDB, 7.5 μM
  activity at 7.5 µM: 22%
Aspergillus flavus, 0.25 h, 15 min, 1% PDB, 10.0 μM
  activity at 10 µM: 3.4%
Aspergillus flavus, 20 min, 1% PDB, 2.0 μM
  activity at 2 µM: 98.9%
Aspergillus flavus, 20 min, 1% PDB, 3.0 μM
  activity at 3 µM: 87%
Aspergillus flavus, 20 min, 1% PDB, 4.0 μM
  activity at 4 µM: 68%
Aspergillus flavus, 20 min, 1% PDB, 5.0 μM
  activity at 5 µM: 41.5%
Aspergillus flavus, 20 min, 1% PDB, 7.5 μM
  activity at 7.5 µM: 8.6%
Aspergillus flavus, 20 min, 1% PDB, 10.0 μM
  activity at 10 µM: 3.3%
Aspergillus flavus, 0.5 h, 30 min, 1% PDB, 2.0 μM
  activity at 2 µM: 90.1%
Aspergillus flavus, 0.5 h, 30 min, 1% PDB, 3.0 μM
  activity at 3 µM: 74.4%
Aspergillus flavus, 0.5 h, 30 min, 1% PDB, 4.0 μM
  activity at 4 µM: 54.2%
Aspergillus flavus, 0.5 h, 30 min, 1% PDB, 5.0 μM
  activity at 5 µM: 34.9%
Aspergillus flavus, 0.5 h, 30 min, 1% PDB, 7.5 μM
  activity at 7.5 µM: 11%
Aspergillus flavus, 0.5 h, 30 min, 1% PDB, 10.0 μM
  activity at 10 µM: 8.4%
